We go through five compounds from patent publication EP0507188A1, “Substituted 2',3'-dideoxy-5-trifluoromethyluridines, method of their preparation and their use in medicaments” (BAYER AG, priority 1991, dated 1992).

Where two headings read alike, the source gives them in different places. Some results are limits rather than exact numbers.

In one data set the test system is MEF-Zellen. As to the kind of experiment: Effect on vitality of other cells by incubation (MEF). The class given is cell-based. The note with it: no influence on vitality up to this concentration. The procedure:
(§1) Die Wirkung des Beispiels 2 auf andere Zellen wurde durch Inkubation von HEL-, MEF-Zellen getestet. Es zeigte sich keine Beeinflussung der Vitalität dieser Zellen bis zu einer Konzentration von 250 µM.

Another data set concerns HEL-Zellen. As to the kind of experiment: Effect on vitality of other cells by incubation (HEL). The class given is cell-based. To be noted: no influence on vitality up to this concentration. The procedure:
as §1

Another data set relates to Hepatitis B Virus (HBV). As to the kind of experiment: HBV test system in HBV-DNA-transfected hepatoma cells (HEP G2.2.15): HBV DNA in supernatant, HBsAg ELISA. In kind it is cell-based. The note with it: read-out: IC₅₀. From the text: Es wurde überraschend gefunden, daß die erfindungsgemäßen Verbindungen der allgemeinen Formel (I) eine außerordentlich starke spezifische Wirkung gegen das Heptatitis B Virus (HBV) besitzen. Der Nachweis wurde in mit Hepatitis B Virus DNA transfizierten Hepatomzellen (HEP G2.2.15) geführt.
Die Ergebnisse der unten aufgeführten Beispiele wurden zu dem in der folgenden Literaturangabe [Sells, M.A.; Chen, M.L., Acs, G., Proc. Natl. Acad. Sci. USA S. 1005 - 1009, Vol. 84 (1987)] beschriebenen HBV Testsystem ermittelt: Transfizierte Hepatomzellen (HEP G2.2.15) wurden mit verschiedenen Konzentrationen an der jeweiligen Verbindung inkubiert. Durch Behandlung der transfizierten Hepatomzellinie HEP G2.2.15 mit den erfindungsgemäßen Verbindungen konnte das […] der virusspezifischen HBV DNA im Überstand sowie eine Reduktion des HBsAg Spiegels gezeigt werden. Es wurde weiter gefunden, daß die erfindungsgemäßen Verbindungen zu einer Reduktion der replikativen Intermediate der Hepatitisviren führen. Im Überstand der Zellkulturen wurde nach PEG Fällung der Gehalt an HBV DNA bestimmt. Dies geschah unter Verwendung einer nicht radioaktiv markierten HBV genomischen DNA Probe [Pauly, P., 1982, P.H.D. Thesis, University of Göttingen, F.R.G.; Köchel et al., 1990, EMBL, Accession-Nr. X 51790]. Gleichzeitig erfolgte der Nachweis der Beeinflussung der HBsAg Bildung mittels eines kommerziell erhältlichen Elisa Tests. Die angegebenen IC₅₀-Werte beziehen sich auf die Substratkonzentrationen, die unter den oben aufgeführten Testbedingungen eine 50%ige Hemmung der HBV DNA Konzentration im Überstand bewirken.
On the technique in general: In an ELISA, binding on a coated surface is turned into a signal by an enzyme label.

A short description of data set [1]: Water solubility (qualitative remark on the lyophilisate). The note with it: lyophilisate of the sodium salt. In kind it is physicochemical.
Where [2] appears, read: HEP G2.2.15 cells, concentration giving 50% inhibition of HBV DNA concentration in supernatant.

As to `O=c1[nH]c(=O)n([C@H]2CC[C@@H](CO)O2)cc1C(F)(F)F` [Beispiel 2, β-2',3'-Didesoxy-5-(trifluormethyl)-uridin], the “Beeinflussung der Vitalität dieser Zellen” value in the data set on MEF-Zellen and with HEL-Zellen was > 250 µM in each case. For the same compound, in the data set with Hepatitis B Virus (HBV) (setting [2]), the IC50 was 0.01 nM. Take `O=c1[nH]c(=O)n([C@H]2CC[C@@H](CO)O2)cc1C(F)(F)F.[Na]` [Beispiel 12, β-2',3'-Didesoxy-5-(trifluormethyl)-uridin-natriumsalz]: the Wasserlöslichkeit entry in data set [1] is given as “gut wasserlösliches”. For the compound `Nc1ncnc2c1ncn2[C@H]1CC[C@@H](CO)O1` [DDA, reference compound], the IC50 in the data set on Hepatitis B Virus (HBV) (reference substances in the same test system (HEP G2.2.15, HBV DNA in supernatant)) is > 100000 nM. With `Nc1ccn([C@H]2CC[C@@H](CO)O2)c(=O)n1` [DDC, 2',3'-Didesoxy-cytidin, reference compound], in the data set with Hepatitis B Virus (HBV) (Hepatitis B virus, HepG2.2.15, reference substances in the same test system (HEP G2.2.15, HBV DNA in supernatant)), the IC50 was found to be 5000 nM. Take “β-5'-(1-Ethoxycarbonyloxy-eth-1-yl)-2',3'-didesoxy-5-(trifluormethyl)-uridin [Beispiel 5]”: in the data set with Hepatitis B Virus (HBV) (setting [2]), the IC50 is > 0.25 nM.
